Reference: US20090317357A1, “Methods for treating or preventing autoimmune disease using histamine h1 receptor-blocking agents” (priority 2003, published 2009)

Columns and labels:
[1] = system: EAE in SJL (H-2s) mice; test: EAE induced with PLP139-151 in SJL mice, daily i.p. treatment with H1R or PAFR antagonist; type: in vivo; conditions: day 13, daily i.p. from day 2 after induction, pyrilamine 0.6 mg/mouse, CV6209 1 μg/mouse, vehicle group 3±0.52
Method: Modulation of EAE with H1R antagonist and PAFR antagonist. EAE was induced in SJL/J mice with PLP139-151. The H1R antagonist pyrilamine (0.6 mg/mouse; n=8), PAFR antagonist CV6209 (1 μg/mouse; n=8), or vehicle alone (PBS; n=7) were given daily i.p. starting on day 2 after the induction of EAE.
Mice were assessed daily for clinical signs of EAE (see id.). For each mouse, a remission was defined as decrease of the score of at least one point for at least 2 consecutive days. […] In the pharmacological studies, the histamine receptor 1 antagonist, pyrilamine (Sigma, St Louis, Mo.) and the PAF antagonist, CV6209 (Biomol, Plymouth Meeting, Pa.) were injected daily i.p. in PBS starting 2 days after the induction of EAE.
We targeted pharmacologically PAF and histamine, the main vasoactive mediators of murine anaphylaxis, and evaluated the development of EAE. EAE was induced in SJL (H-2s) mice with PLP139-151 and on the second day after the induction of the disease we started a daily i.p. treatment with the PAFR antagonist CV 6209, or with the H1R antagonist pyrilamine.

[2] = system: EAE; conditions: cited: Inaba et al. 1999; Inoue et al. 1996; cited from earlier work

Row | Molecule | mean EAE score [1] | effect on EAE [2]
1 | COc1ccc(CN(CCN(C)C)c2ccccn2)cc1 [pyrilamine] | 0.57±0.2 | –
2 | dermatan sulfate | – | ameliorate EAE
3 | CCCCCCCCCCCCCCCCCCNC(=O)OCC(COC(=O)N(Cc1cccc[n+]1CC)C(C)=O)OC (stereo not shown) [CV 6209] | 0.71±0.36 | –
4 | batroxobin | – | ameliorate EAE
